From patent US20210395239A1 (Hoffmann-La Roche Inc., priority 2018, published 2021) come the findings set out here.

pIC50: −log10 of the molar value.

In the test the target is T1, human TLR8 (Homo sapiens, UniProt Q9NR97).
T1 construct: host or cells: HEK293 (HEK-Blue hTLR8)
T1 sequence (Q9NR97 27-1041): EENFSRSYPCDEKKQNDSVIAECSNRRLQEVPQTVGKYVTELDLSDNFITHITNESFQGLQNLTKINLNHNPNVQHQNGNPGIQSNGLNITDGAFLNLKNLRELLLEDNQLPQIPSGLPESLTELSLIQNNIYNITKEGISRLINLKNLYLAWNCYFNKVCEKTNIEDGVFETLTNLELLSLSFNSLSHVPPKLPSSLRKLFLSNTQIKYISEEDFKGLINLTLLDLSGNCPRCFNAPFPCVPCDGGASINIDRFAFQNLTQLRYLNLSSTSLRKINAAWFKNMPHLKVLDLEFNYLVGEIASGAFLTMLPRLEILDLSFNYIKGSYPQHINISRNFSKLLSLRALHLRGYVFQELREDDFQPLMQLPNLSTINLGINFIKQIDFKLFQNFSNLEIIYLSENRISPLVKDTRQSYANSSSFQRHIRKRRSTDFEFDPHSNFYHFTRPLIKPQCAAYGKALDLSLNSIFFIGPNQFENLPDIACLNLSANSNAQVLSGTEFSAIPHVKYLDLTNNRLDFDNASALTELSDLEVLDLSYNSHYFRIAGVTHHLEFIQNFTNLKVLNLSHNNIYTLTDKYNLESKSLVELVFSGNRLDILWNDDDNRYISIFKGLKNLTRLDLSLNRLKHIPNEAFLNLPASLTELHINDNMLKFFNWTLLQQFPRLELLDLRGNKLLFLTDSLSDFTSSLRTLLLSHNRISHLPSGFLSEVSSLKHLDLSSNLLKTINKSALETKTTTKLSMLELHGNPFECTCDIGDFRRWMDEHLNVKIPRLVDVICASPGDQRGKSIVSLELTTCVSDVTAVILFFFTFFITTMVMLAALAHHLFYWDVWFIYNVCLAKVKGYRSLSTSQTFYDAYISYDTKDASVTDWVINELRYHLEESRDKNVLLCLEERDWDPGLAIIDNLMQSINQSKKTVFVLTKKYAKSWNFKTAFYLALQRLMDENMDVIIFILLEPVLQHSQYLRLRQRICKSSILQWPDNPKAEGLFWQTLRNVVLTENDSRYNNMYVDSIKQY
In words: HEK293-Blue-hTLR-8 cells assay (SEAP reporter, R848 stimulation). The test is classed as cell-based. Particulars: HEK293-Blue-hTLR8 cells, R848, 20 hrs; read-out: HEK/hTLR8 IC50. The method in brief: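 HEK293-Blue-hTLR8 cells (NF-κB/AP-1-driven SEAP) incubated 20 h at 37° C with serially diluted compound (1% DMSO) plus R848 stimulation. Supernatant SEAP measured with QUANTI-Blue, 2 h at 37° C, absorbance 620–655 nm.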
For the molecule `C[C@@H]1CN(c2ccc(C#N)c3ncccc23)C[C@H](CN2CCN(c3ccnc(NC4CNC4)n3)CC2)O1` [Example 28, 5-[(2S,6R)-2-[[4-[2-(azetidin-3-ylamino)pyrimidin-4-yl]piperazin-1-yl]methyl]-6-methyl-morpholin-4-yl]quinoline-8-carbonitrile], the pIC50 is 8.40.

Consider `C[C@@H]1CN(c2ccc(C#N)c3ncccc23)C[C@H](CN2CCN(c3ccnc(N4CCNCC4)n3)CC2)O1` [Example 15, 5-[(2R,6S)-2-methyl-6-[[4-(2-piperazin-1-ylpyrimidin-4-yl)piperazin-1-yl]methyl]morpholin-4-yl]quinoline-8-carbonitrile], for which the pIC50 was 8.52.

Turning to `CO[C@H]1CN(c2cccc(N3CCN(C[C@H]4CN(c5ccc(C#N)c6ncccc56)C[C@@H](C)O4)CC3)n2)C[C@H]1N` [Example 42, 5-[(2S,6R)-2-[[4-[6-[(3R,4S)-3-amino-4-methoxy-pyrrolidin-1-yl]-2-pyridyl]piperazin-1-yl]methyl]-6-methyl-morpholin-4-yl]quinoline-8-carbonitrile], the pIC50 was 7.89.

As for `C[C@@H]1CN(c2ccc(C#N)c3ncccc23)C[C@H](CN2CCN(c3ccnc(N[C@H]4CNC[C@H]4F)n3)CC2)O1` [Example 24, 5-[(2S,6R)-2-[[4-[2-[[(3S,4R)-4-fluoropyrrolidin-3-yl]amino]pyrimidin-4-yl]piperazin-1-yl]methyl]-6-methyl-morpholin-4-yl]quinoline-8-carbonitrile], the pIC50 was 7.96.

For the molecule `C[C@@H]1CN(c2ccc(C#N)c3ncccc23)C[C@H](CN2CCN(c3cccc(N4CC(N)C(F)C4)n3)CC2)O1` (stereo partly drawn) [Example 40, 5-[(2S,6R)-2-[[4-[6-(3-amino-4-fluoro-pyrrolidin-1-yl)-2-pyridyl]piperazin-1-yl]methyl]-6-methyl-morpholin-4-yl]quinoline-8-carbonitrile], the pIC50 is 7.77.

Consider `C[C@@H]1CN(c2ccc(C#N)c3ncccc23)C[C@H](CN2CCN(c3ccnc(N4CCN(C(=O)C5CCN5)CC4)n3)CC2)O1` (stereo partly drawn) [Example 34, 5-[(2S,6R)-2-[[4-[2-[4-(azetidine-2-carbonyl)piperazin-1-yl]pyrimidin-4-yl]piperazin-1-yl]methyl]-6-methyl-morpholin-4-yl]quinoline-8-carbonitrile], for which the pIC50 is 8.40.

For `COC1CN(c2nccc(N3CCN(C[C@H]4CN(c5ccc(C#N)c6ncccc56)C[C@@H](C)O4)CC3)n2)C[C@H]1N` (stereo in doubt) [Example 52, 5-[(2S,6R)-2-[[4-[2-[(3R,4R)-3-amino-4-methoxy-pyrrolidin-1-yl]pyrimidin-4-yl]piperazin-1-yl]methyl]-6-methyl-morpholin-4-yl]quinoline-8-carbonitrile], the pIC50 was 8.52.

With `Cc1cc(N2CCN(C[C@H]3CN(c4ccc(C#N)c5ncccc45)C[C@@H](C)O3)CC2)nc(NC2CNCC2C#N)n1` (stereo partly drawn) [Example 57, 5-[(2S,6R)-2-[[4-[2-[(4-cyanopyrrolidin-3-yl)amino]-6-methyl-pyrimidin-4-yl]piperazin-1-yl]methyl]-6-methyl-morpholin-4-yl]quinoline-8-carbonitrile], the pIC50 was 8.40.

On to `C[C@@H]1CN(c2ccc(C#N)c3ncccc23)C[C@H](CN2CCN(c3ccnc(N4CCC(N)CC4)n3)CC2)O1` [Example 27, 5-[(2S,6R)-2-[[4-[2-(4-amino-1-piperidyl)pyrimidin-4-yl]piperazin-1-yl]methyl]-6-methyl-morpholin-4-yl]quinoline-8-carbonitrile], for which the pIC50 was 8.52.

Turning to `Cc1cc(N2CCN(C[C@H]3CN(c4ccc(C#N)c5ncccc45)C[C@@H](C)O3)CC2)nc(N2C[C@@H]3COC[C@@H](C2)N3)n1` [Example 58, 5-[(2R,6S)-2-methyl-6-[[4-[6-methyl-2-[(1R,5R)-3-oxa-7,9-diazabicyclo[3.3.1]nonan-7-yl]pyrimidin-4-yl]piperazin-1-yl]methyl]morpholin-4-yl]quinoline-8-carbonitrile], the pIC50 was 8.40.

In the case of `Cc1cc(N2CCN(C[C@H]3CN(c4ccc(C#N)n5ncc(F)c45)C[C@@H](C)O3)CC2)nc(N2CCNCC2)n1` [Example 67, 3-Fluoro-4-[(2R,6S)-2-methyl-6-[[4-(6-methyl-2-piperazin-1-yl-pyrimidin-4-yl)piperazin-1-yl]methyl]morpholin-4-yl]pyrazolo[1,5-a]pyridine-7-carbonitrile], the pIC50 is 7.64.

As for `C[C@@H]1CN(c2ccc(C#N)c3ncccc23)C[C@H](CN2CCN(c3ccnc(N4CCN[C@@H](CO)C4)n3)CC2)O1` [Example 29, 5-[(2S,6R)-2-[[4-[2-[(3R)-3-(hydroxymethyl)piperazin-1-yl]pyrimidin-4-yl]piperazin-1-yl]methyl]-6-methyl-morpholin-4-yl]quinoline-8-carbonitrile], the pIC50 was 8.00.

With `C[C@@H]1CN(c2ccc(C#N)c3ncccc23)C[C@H](CN2CCN(c3ccnc(N4CC(N)C4)n3)CC2)O1` [Example 23, 5-[(2S,6R)-2-[[4-[2-(3-aminoazetidin-1-yl)pyrimidin-4-yl]piperazin-1-yl]methyl]-6-methyl-morpholin-4-yl]quinoline-8-carbonitrile], the pIC50 was 7.74.

Take `CO[C@H]1CN(c2nccc(N3CCN(C[C@H]4CN(c5ccc(C#N)c6ncccc56)C[C@@H](C)O4)CC3)n2)CC1N` (stereo in doubt) [Example 53, 5-[(2S,6R)-2-[[4-[2-[(3S,4S)-3-amino-4-methoxy-pyrrolidin-1-yl]pyrimidin-4-yl]piperazin-1-yl]methyl]-6-methyl-morpholin-4-yl]quinoline-8-carbonitrile]: the pIC50 was 8.52.

Regarding `COC1CN(c2ccc(C3CN(C[C@H]4CN(c5cc(=O)n(C)c6ncccc56)C[C@@H](C)O4)C3)cc2)C[C@H]1N` (stereo in doubt) [Example 172, 4-[(2S,6R)-2-[[3-[4-[(3R,4R)-3-amino-4-methoxy-pyrrolidin-1-yl]phenyl]azetidin-1-yl]methyl]-6-methyl-morpholin-4-yl]-1-methyl-1,8-naphthyridin-2-one], the pIC50 is 7.03.

For `C[C@@H]1CN(c2ccc(C#N)c3ncccc23)C[C@H](CN2CCN(c3ncc(C#N)c(N4CCNCC4)n3)CC2)O1` [Example 51, 5-[(2S,6R)-2-[[4-(5-cyano-4-piperazin-1-yl-pyrimidin-2-yl)piperazin-1-yl]methyl]-6-methyl-morpholin-4-yl]quinoline-8-carbonitrile], the pIC50 is 8.52.

With `C[C@@H]1CN(c2ccc(C#N)c3ncccc23)C[C@H](CN2CCN(c3cccc(NC4CNC4)n3)CC2)O1` [Example 38], the pIC50 was 7.96.

For `Cc1cc(N2CCN(C[C@H]3CN(c4ccc(C#N)c5ncccc45)C[C@@H](C)O3)CC2)nc(N2C[C@@H](N)[C@@H](F)C2)n1` [Example 55, 5-[(2S,6R)-2-[[4-[2-[(3R,4S)-3-amino-4-fluoro-pyrrolidin-1-yl]-6-methyl-pyrimidin-4-yl]piperazin-1-yl]methyl]-6-methyl-morpholin-4-yl]quinoline-8-carbonitrile], the pIC50 is 8.52.

Regarding `CO[C@H]1CN(c2nc(C)cc(N3CCN(C[C@H]4CN(c5ccc(C#N)c6ncccc56)C[C@@H](C)O4)CC3)n2)CC1N` (relative stereo) [Example 59, 5-[(2R,6S)-2-methyl-6-[[4-[6-methyl-2-[trans-3-amino-4-methoxy-pyrrolidin-1-yl]pyrimidin-4-yl]piperazin-1-yl]methyl]morpholin-4-yl]quinoline-8-carbonitrile], the pIC50 is 8.52.

For `C[C@@H]1CN(c2ccc(C#N)c3ncccc23)C[C@H](CN2CCN(c3cc(N4CCNCC4)ccn3)CC2)O1` [Example 9, 5-[(2R,6S)-2-methyl-6-[[4-(4-piperazin-1-yl-2-pyridyl)piperazin-1-yl]methyl]morpholin-4-yl]quinoline-8-carbonitrile], the pIC50 is 8.52.

Consider `C[C@@H]1CN(c2ccc(C#N)n3ncc(F)c23)C[C@H](CN2CCN(c3ccc(N[C@H]4CNC[C@H]4F)nc3)CC2)O1` [Example 167, 3-fluoro-4-[(2S,6R)-2-[[4-[6-[[(3S,4R)-4-fluoropyrrolidin-3-yl]amino]-3-pyridyl]piperazin-1-yl]methyl]-6-methyl-morpholin-4-yl]pyrazolo[1,5-a]pyridine-7-carbonitrile], for which the pIC50 is 7.47.

Turning to `C[C@@H]1CN(c2ccc(C#N)c3ncccc23)C[C@H](CN2CCN(c3cccc(N4CCNCC(O)C4)n3)CC2)O1` (stereo partly drawn) [Example 41, 5-[(2S,6R)-2-[[4-[6-(6-hydroxy-1,4-diazepan-1-yl)-2-pyridyl]piperazin-1-yl]methyl]-6-methyl-morpholin-4-yl]quinoline-8-carbonitrile], the pIC50 is 7.49.
